Among the data in patent US6699854B2, “Anti-cancer compounds” (Cyclacel Limited, priority 2000, dated 2004) are IC50 values, retold here.

For one assay, the target named is T1, CDK2/cyclin E (Homo sapiens, UniProt P24941).
T1 construct: His; made in house; host or cells: Sf9 insect cells (baculovirus)
Kind of assay: CDK2/cyclin E kinase assay (GST-Rb phosphorylation).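 Further: enzyme source: His-tagged CDK2/cyclin E co-expressed in Sf9 insect cells via baculovirus, then purified by metal-chelate chromatography.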 The format is biochemical. The settings on record: Table 2, further results for CDK2/cyclin E inhibition; read-out: CDK2/cyclin E.

The subject of a further assay is A549. Kind of assay: 72-h MTT cytotoxicity assay, A549. The format is cell-based, human. The conditions noted are these: Homo sapiens, Table 4, additional data for cytotoxicity assay using the A549 cell line; read-out: A549. As for the experimental part: Selected compounds from the above examples were subjected to a standard cellular proliferation assay using a range of different human tumour cell lines. Standard 72-h MTT (thiazolyl blue; 3-{4,5-dimethylthiazol-2-yl}-2,5-diphenyltetrazolium bromide) assays were performed (Haselsberger, K.; Peterson, D. C.; Thomas, D. G.; Darling, J. L. Anti Cancer Drugs 1996, 7, 331-8; Loveland, B. E.; Johns, T. G.; Mackay, I. R.; Vaillant, F.; Wang, Z. X.; Hertzog, P. J. Biochemistry International 1992, 27, 501-10). Human tumour cell lines were obtained from the ATCC (American Type Culture Collection, 10801 University Boulevard, Manessas, Va. 20110-2209, USA).

Take `Cc1nc(C)c(-c2ccnc(Nc3cccc(I)c3)n2)s1` [Compound 33, {4-(2,4-Dimethyl-thiazol-5-yl)-pyrimidin-2-yl}-(3-iodo-phenyl)-amine]: the IC50 on CDK2/cyclin E worked out at 200 nM; in the assay on A549 it was 61000 ± 55000 nM.
As for `COc1ccccc1Nc1nccc(-c2sc(C)nc2C)n1` [Compound 37, {4-(2,4-Dimethyl-thiazol-5-yl)-pyrimidin-2-yl}-(2-methoxy-phenyl)-amine], the IC50 stood at 6400 ± 100 nM at CDK2/cyclin E and 25000 nM in the assay with A549.
Consider `COc1cccc(Nc2nccc(-c3sc(C)nc3C)n2)c1` [Compound 38, {4-(2,4-Dimethyl-thiazol-5-yl)-pyrimidin-2-yl}-(3-methoxy-phenyl)-amine], for which the IC50 is 400 ± 300 nM on CDK2/cyclin E and 4500 ± 1600 nM in the assay with A549.
For `COc1ccc(Nc2nccc(-c3sc(C)nc3C)n2)cc1` [Compound 39, {4-(2,4-Dimethyl-thiazol-5-yl)-pyrimidin-2-yl}-(4-methoxy-phenyl)-amine], the IC50 amounted to 220 ± 70 nM on CDK2/cyclin E and 300 nM with A549.
Taken in the same sequence, the figures for `Cc1nc(C)c(-c2ccnc(Nc3ccc(O)c([N+](=O)[O-])c3)n2)s1` [Compound 45, 4-{4-(2,4-Dimethyl-thiazol-5-yl)-pyrimidin-2-ylamino}-2-nitro-phenol] were 210 ± 160 nM and 3300 ± 500 nM.
Consider `Cc1nc(C)c(-c2ccnc(Nc3ccc(C#N)cc3)n2)s1` [Compound 48, 4-{4-(2,4-Dimethyl-thiazol-5-yl)-pyrimidin-2-ylamino}-benzonitrile], for which the values for the IC50 at CDK2/cyclin E and with A549 were 30 nM and 6700 ± 1100 nM, respectively.
Turning to `Cc1nc(C)c(-c2ccnc(Nc3cccc(C#N)c3)n2)s1` [Compound 49, 3-{4-(2,4-Dimethyl-thiazol-5-yl)-pyrimidin-2-ylamino}-benzonitrile], the IC50 at CDK2/cyclin E amounted to 20 nM; in the assay on A549, 2200 ± 20 nM.
As for `COC(=O)c1ccc(Nc2nccc(-c3sc(C)nc3C)n2)cc1` [Compound 50, 4-{4-(2,4-Dimethyl-thiazol-5-yl)-pyrimidin-2-ylamino}-benzoic acid methyl ester], the IC50 came out at 300 nM at CDK2/cyclin E and 8800 ± 10000 nM with A549.
Turning to `Cc1nc(C)c(-c2ccnc(Nc3ccc(C)c(Cl)c3)n2)s1` [Compound 51, (3-Chloro-4-methyl-phenyl)-{4-(2,4-dimethyl-thiazol-5-yl)-pyrimidin-2-yl}-amine], the IC50 was determined as 750 nM on CDK2/cyclin E and 300 ± 300 nM in the assay with A549.
For the compound `COc1ccc(Nc2nccc(-c3sc(C)nc3C)n2)cc1Cl` [Compound 52, (3-Chloro-4-methoxy-phenyl)-{4-(2,4-dimethyl-thiazol-5-yl)-pyrimidin-2-yl}-amine], the IC50 on CDK2/cyclin E was 60 nM; with A549 it was 800 ± 300 nM.
In the case of `Cc1nc(C)c(-c2ccnc(Nc3ccc(C(=O)O)cc3)n2)s1` [Compound 53, 4-{4-(2,4-Dimethyl-thiazol-5-yl)-pyrimidin-2-ylamino}-benzoic acid], the IC50 came out at 700 ± 400 nM on CDK2/cyclin E and 12000 ± 5000 nM with A549.
Taken in the same sequence, the figures for `Cc1nc(-c2ccccc2)sc1-c1ccnc(Nc2ccc(O)cc2)n1` [Compound 60, 4-{4-(4-Methyl-2-phenyl-thiazol-5-yl)-pyrimidin-2-ylamino}-phenol] were 4000 nM and 2100 ± 300 nM.
With `CNc1nc(C)c(-c2ccnc(Nc3ccc(F)cc3)n2)s1` [Compound 62, (4-Fluoro-phenyl)-{4-(4-methyl-2-methylamino-thiazol-5-yl)-pyrimidin-2-yl}-amine], the IC50 stood at 60 ± 30 nM at CDK2/cyclin E and 1100 ± 200 nM in the assay with A549.
As to `CNc1nc(C)c(-c2ccnc(Nc3ccc(I)cc3)n2)s1` [Compound 72, (4-Iodo-phenyl)-{4-(4-methyl-2-methylamino-thiazol-5-yl)-pyrimidin-2-yl}-amine], the IC50 on CDK2/cyclin E is 900 nM; in the assay with A549 it was 800 ± 500 nM.
`CNc1nc(C)c(-c2ccnc(Nc3ccc(O)c([N+](=O)[O-])c3)n2)s1` [Compound 73, 4-{4-(4-Methyl-2-methylamino-thiazol-5-yl)-pyrimidin-2-ylamino}-2-nitro-phenol]: the IC50 on CDK2/cyclin E stood at 200 nM; in the assay on A549 it was 9000 ± 4000 nM.
On to `CCOC(=O)c1ccc(Nc2nccc(-c3sc(NC)nc3C)n2)cc1Cl` [Compound 74, 2-Chloro-4-{4-(4-methyl-2-methylamino-thiazol-5-yl)-pyrimidin-2-ylamino}-benzoic acid ethyl ester], for which the IC50 at CDK2/cyclin E came out at 100 nM; with A549, 18000 ± 4000 nM.
`CCNc1nc(C)c(-c2ccnc(Nc3ccc(F)cc3)n2)s1` [Compound 75, {4-(2-Ethylamino-4-methyl-thiazol-5-yl)-pyrimidin-2-yl}-(4-fluoro-phenyl)-amine]: the IC50 at CDK2/cyclin E was 200 nM; in the assay on A549, 3200 ± 400 nM.
Turning to `CNc1nc(C)c(-c2ccnc(Nc3cccc([N+](=O)[O-])c3)n2)s1` [Compound 76, (4-{4-Methyl-2-methylamino-thiazol-5-yl)-pyrimidin-2-yl}-(3-nitro-phenyl)-amine], the figures for the IC50 on CDK2/cyclin E and in the assay with A549 were 800 nM and 3000 ± 900 nM, respectively.
Take `C=CCNc1nc(C)c(-c2ccnc(Nc3ccc(F)cc3)n2)s1` [Compound 82, {4-(2-Allylamino-4-methyl-thiazol-5-yl)-pyrimidin-2-yl}-(4-fluoro-phenyl)-amine]: the IC50 at CDK2/cyclin E amounted to 200 nM; with A549, 1100 ± 300 nM.
Turning to `CNc1nc(C)c(-c2ccnc(Nc3cccc(Br)c3)n2)s1` [Compound 83, (3-Bromo-phenyl)-{4-(4-methyl-2-methylamino-thiazol-5-yl)-pyrimidin-2-yl}-amine], the IC50 at CDK2/cyclin E turned out to be 200 nM; in the assay with A549 it was 600 ± 300 nM.
For `CNc1nc(C)c(-c2ccnc(Nc3ccc(Br)cc3)n2)s1` [Compound 86, (4-Bromo-phenyl)-{4-(4-methyl-2-methylamino-thiazol-5-yl)-pyrimidin-2-yl}-amine] the same measures were 130 nM and 8000 ± 6000 nM.
With `CNc1nc(C)c(-c2ccnc(Nc3ccc(Cl)cc3)n2)s1` [Compound 87, (4-Chloro-phenyl)-{4-(4-methyl-2-methylamino-thiazol-5-yl)-pyrimidin-2-yl}-amine], the IC50 at CDK2/cyclin E worked out at 80 nM; with A549 it was 1700 ± 100 nM.
Take `CNc1nc(C)c(-c2ccnc(Nc3cccc(OC)c3)n2)s1` [Compound 88, (3-Methoxy-phenyl)-{4-(4-methyl-2-methylamino-thiazol-5-yl)-pyrimidin-2-yl}-amine]: the IC50 is 200 nM at CDK2/cyclin E and 400 ± 100 nM in the assay on A549.
With `CNc1nc(C)c(-c2ccnc(Nc3ccc(C(F)(F)F)cc3)n2)s1` [Compound 89, {4-(4-Methyl-2-methylamino-thiazol-5-yl)-pyrimidin-2-yl}-(4-trifluoromethyl-phenyl)-amine], the IC50 at CDK2/cyclin E was found to be 1200 nM; in the assay on A549, 18000 ± 11000 nM.
Consider `CNc1nc(C)c(-c2ccnc(Nc3cccc(C(F)(F)F)c3)n2)s1` [Compound 90, {4-(4-Methyl-2-methylamino-thiazol-5-yl)-pyrimidin-2-yl}-(3-trifluoromethyl-phenyl)-amine], for which the results for the IC50 on CDK2/cyclin E and in the assay on A549 were 200 nM and 1800 ± 800 nM, respectively.
With `Cc1nc(C)c(-c2ccnc(Nc3ccc(I)cc3F)n2)s1` [Compound 94, {4-(2,4-Dimethyl-thiazol-5-yl)-pyrimidin-2-yl}-(2-fluoro-4-iodo-phenyl)-amine], the IC50 on CDK2/cyclin E was 600 nM; in the assay on A549, 500 ± 600 nM.
With `Cc1nc(C)c(-c2ccnc(Nc3ccc(O)c(Cl)c3)n2)s1` [Compound 97, 2-Chloro-4-{4-(2,4-dimethyl-thiazol-5-yl)-pyrimidin-2-ylamino}-phenol], the IC50 came out at 600 nM on CDK2/cyclin E and 4200 ± 400 nM in the assay with A549.
